The results in this text go back to patent publication US20150141381A1, “TETRACYCLINE COMPOUNDS HAVING TARGET THERAPEUTIC ACTIVITIES” (Paratek Pharmaceuticals, Inc., priority 2001, published 2015).

For experiment [1], the system named is S. aureus RN450. Nature of the experiment: In Vitro Anti-Bacterial Activity Assay (MIC), gram positive. It counts as cell-based. The settings on record: Staphylococcus aureus, RN450, 18 h.
Experiment [2] deals with E. coli mL308 225. The experiment can be described thus: In Vitro Anti-Bacterial Activity Assay (MIC), gram negative. The settings on record: Escherichia coli, ML308225, 18 h. It counts as cell-based.
Setting [3] is: MIC class, Table 3, read-out: Antibiotic Activity Gram +.
Where [4] appears, read: MIC class, Table 3, read-out: Antibiotic Activity Gram −.
[5] abbreviates: gram positive bacteria, read-out: Antibiotic Activity Gram + (MIC).
[6] abbreviates: gram negative bacteria, read-out: Antibiotic Activity Gram − (MIC).
[7] abbreviates: MIC class, Table 3 (Continued), read-out: Gram+ activity.
Where [8] appears, read: MIC class, Table 3 (Continued), read-out: Gram− activity.

Read-outs that look alike come from different tables or passages of the source. Some results are limits rather than exact numbers.

For the compound `Cc1noc(C)c1S(=O)(=O)NCc1ccc(O)c2c1C[C@H]1C[C@H]3[C@H](N(C)C)C(O)=C(C(N)=O)C(=O)[C@@]3(O)C(O)=C1C2=O` [IG], the MIC in experiment [1] (setting [3]) was < 4 µg/mL; in experiment [2] (setting [4]), > 4 µg/mL.

For the compound `CN(C)c1cc(CNC(=O)C2(N)CC2)c(O)c2c1C[C@H]1C[C@H]3[C@H](N(C)C)C(O)=C(C(N)=O)C(=O)[C@@]3(O)C(O)=C1C2=O`, the results for the MIC in experiment [1] (setting [5]) and in experiment [2] (setting [6]) were < 4 µg/mL and > 4 µg/mL, respectively.

As for `COc1ccc(CN2CCCC2)cc1-c1ccc(O)c2c1C[C@H]1C[C@H]3C(N(C)C)C(O)=C(C(N)=O)C(=O)[C@@]3(O)C(O)=C1C2=O` (some centres unmarked) [ED], the MIC in experiment [1] (setting [3]) and in experiment [2] (setting [4]) was < 4 µg/mL throughout.

As for `COC(=O)c1cc(N(C)C)c2c(c1O)C(=O)C1=C(O)[C@]3(O)C(=O)C(C(N)=O)=C(O)C(N(C)C)[C@@H]3C[C@@H]1C2` (some centres unmarked) [MO], the MIC in experiment [1] (setting [3]) and in experiment [2] (setting [4]) was > 4 µg/mL each time.

With `CN(C)c1ccc(-c2ccc(O)c3c2C[C@H]2C[C@H]4[C@H](N(C)C)C(O)=C(C(N)=O)C(=O)[C@@]4(O)C(O)=C2C3=O)cc1`, the MIC in experiment [1] (setting [7]) and in experiment [2] (setting [8]) was < 4 µg/mL in each case.

Regarding `CN(C)[C@@H]1C(O)=C(C(N)=O)C(=O)[C@@]2(O)C(O)=C3C(=O)c4c(O)ccc(-c5ccc(CNCCF)cc5)c4C[C@H]3C[C@@H]12`, the MIC in experiment [1] (setting [5]) and in experiment [2] (read-out: Antibiotic Activity Gram − (MIC)) was < 4 µg/mL each time.

As for `CNCOc1ccc(-c2ccc(O)c3c2C[C@H]2C[C@H]4[C@H](N(C)C)C(O)=C(C(N)=O)C(=O)[C@@]4(O)C(O)=C2C3=O)cc1`, the MIC in experiment [1] (setting [5]) and in experiment [2] (setting [6]) was < 4 µg/mL throughout.

As to `Cc1ccc(/C=C/c2ccc(O)c3c2C[C@H]2C[C@H]4[C@H](N(C)C)C(O)=C(C(N)=O)C(=O)[C@@]4(O)C(O)=C2C3=O)cc1` [drawing 3339], the MIC in experiment [1] (setting [7]) and in experiment [2] (setting [8]) was < 4 µg/mL in each case.

As to `CN(C)[C@@H]1C(O)=C(C(N)=O)C(=O)[C@@]2(O)C(O)=C3C(=O)c4c(O)ccc(-c5ccc(-n6cccc6)nc5)c4C[C@H]3C[C@@H]12`, the MIC in experiment [1] (setting [5]) and in experiment [2] (setting [6]) was < 4 µg/mL each time.

As for `CC(=O)Nc1ccc(-c2ccc(O)c3c2C[C@H]2C[C@H]4[C@H](N(C)C)C(O)=C(C(N)=O)C(=O)[C@@]4(O)C(O)=C2C3=O)cc1`, the MIC is < 4 µg/mL in experiment [1] (setting [5]) and > 4 µg/mL in experiment [2] (setting [6]).

As for `CC(O)CCc1ccc(O)c2c1C[C@H]1C[C@H]3[C@H](N(C)C)C(O)=C(C(N)=O)C(=O)[C@@]3(O)C(O)=C1C2=O` (some centres unmarked) [CR], the MIC in experiment [1] (setting [3]) is < 4 µg/mL; in experiment [2] (setting [4]), > 4 µg/mL.

Turning to `CN(C)[C@@H]1C(O)=C(C(N)=O)C(=O)[C@@]2(O)C(O)=C3C(=O)c4c(O)ccc(CN5CCOCC5)c4C[C@H]3C[C@@H]12`, the MIC in experiment [1] (setting [5]) is < 4 µg/mL; in experiment [2] (setting [6]), > 4 µg/mL.

As for `CN(C)[C@@H]1C(O)=C(C(N)=O)C(=O)[C@@]2(O)C(O)=C3C(=O)c4c(cccc4OCCCO)C[C@H]3C[C@@H]12`, the MIC in experiment [1] (setting [5]) and in experiment [2] (setting [6]) was > 4 µg/mL each time.

As for `C[C@H]1c2ccc(CN3CCC4(CC3)OCCO4)c(O)c2C(=O)C2=C(O)[C@]3(O)C(=O)C(C(N)=O)=C(O)[C@@H](N(C)C)[C@@H]3[C@@H](O)[C@@H]21`, the MIC in experiment [1] (setting [5]) and in experiment [2] (setting [6]) was < 4 µg/mL each time.

With `COC(=O)c1ccc2c(c1O)C(=O)C1=C(O)[C@]3(O)C(=O)C(C(N)=O)=C(O)[C@@H](N(C)C)[C@@H]3[C@@H](O)[C@@H]1[C@H]2C`, the MIC in experiment [1] (setting [5]) and in experiment [2] (setting [6]) was > 4 µg/mL each time.

Turning to `CCOC(=O)/C(I)=C/C(=C/c1ccc(O)c2c1C[C@H]1C[C@H]3[C@H](N(C)C)C(O)=C(C(N)=O)C(=O)[C@@]3(O)C(O)=C1C2=O)C(=O)OCC` [AX], the MIC in experiment [1] (setting [3]) and in experiment [2] (setting [4]) was > 4 µg/mL each time.

Take `CC1c2cccc(O)c2C(=O)C(C(=O)O)C1[C@H](O)[C@@H]1CC(=O)C(C(N)=O)=C(O)[C@H]1N(C)C` (some centres unmarked): the MIC in experiment [1] (setting [7]) and in experiment [2] (setting [8]) was > 4 µg/mL throughout.

For `CN(C)c1cc(CNC(=O)C(Cc2ccccc2)N(C)C)c(O)c2c1C[C@H]1C[C@H]3[C@H](N(C)C)C(O)=C(C(N)=O)C(=O)[C@@]3(O)C(O)=C1C2=O` (some centres unmarked), the MIC in experiment [1] (setting [5]) is < 4 µg/mL; in experiment [2] (setting [6]), > 4 µg/mL.

Turning to `CN(C)c1cc(N2CCCCC2)c(O)c2c1C[C@H]1C[C@H]3[C@H](N(C)C)C(O)=C(C(N)=O)C(=O)[C@@]3(O)C(O)=C1C2=O` [NK], the MIC in experiment [1] (setting [3]) and in experiment [2] (setting [4]) was > 4 µg/mL throughout.

As to `CN(C)[C@@H]1C(O)=C(C(N)=O)C(=O)[C@@]2(O)C(O)=C3C(=O)c4c(O)ccc(C#Cc5cccc(O)c5)c4C[C@H]3C[C@@H]12` [BI], the MIC is < 4 µg/mL in experiment [1] (setting [3]) and > 4 µg/mL in experiment [2] (setting [4]).

For `CN(C)C(=O)c1cccc(-c2ccc(O)c3c2C[C@H]2C[C@H]4[C@H](N(C)C)C(O)=C(C(N)=O)C(=O)[C@@]4(O)C(O)=C2C3=O)c1` [AD], the MIC in experiment [1] (setting [3]) was < 4 µg/mL; in experiment [2] (setting [4]), > 4 µg/mL.

In the case of `CC(=O)c1ccc(-c2ccc3c(c2O)C(=O)C2=C(O)[C@]4(O)C(=O)C(C(N)=O)=C(O)[C@@H](N(C)C)[C@@H]4[C@@H](O)[C@@H]2[C@H]3C)cc1`, the MIC in experiment [1] (setting [5]) and in experiment [2] (setting [6]) was < 4 µg/mL each time.

Turning to `COc1ccc(-c2ccc3c(c2O)C(=O)C2=C(O)[C@]4(O)C(=O)C(C(N)=O)=C(O)[C@@H](N(C)C)[C@@H]4[C@@H](O)[C@@H]2C3C)cc1` (some centres unmarked), the MIC in experiment [1] (setting [7]) and in experiment [2] (setting [8]) was < 4 µg/mL in each case.

`CN(C)[C@@H]1C(O)=C(C(N)=O)C(=O)[C@@]2(O)C(O)=C3C(=O)c4c(ccc(N5CCCCC5)c4O)C[C@H]3C[C@@H]12`: the MIC in experiment [1] (setting [5]) and in experiment [2] (setting [6]) was > 4 µg/mL in each case.

In the case of `CC(C)COC(=O)NCc1ccc(-c2ccc(O)c3c2C[C@H]2C[C@H]4[C@H](N(C)C)C(O)=C(C(N)=O)C(=O)[C@@]4(O)C(O)=C2C3=O)cc1`, the MIC is < 4 µg/mL in experiment [1] (setting [5]) and > 4 µg/mL in experiment [2] (setting [6]).

Take `Cc1ccc(-c2ccc(O)c3c2C[C@H]2C[C@H]4[C@H](N(C)C)C(O)=C(C(N)=O)C(=O)[C@@]4(O)C(O)=C2C3=O)s1`: the MIC in experiment [1] (setting [7]) and in experiment [2] (setting [8]) was < 4 µg/mL throughout.

With `CN(C)c1cc(CNCC2CC2)c(O)c2c1C[C@H]1C[C@H]3[C@H](N(C)C)C(O)=C(C(N)=O)C(=O)[C@@]3(O)C(O)=C1C2=O`, the results for the MIC in experiment [1] (setting [5]) and in experiment [2] (setting [6]) were < 4 µg/mL and > 4 µg/mL, respectively.

Turning to `CN(C)[C@@H]1C(O)=C(C(N)=O)C(=O)[C@@]2(O)C(O)=C3C(=O)c4c(O)c(CNC(=O)c5cccnc5)cc(CCC5CCCCC5)c4C[C@H]3C[C@@H]12` [CV], the MIC was < 4 µg/mL in experiment [1] (setting [3]) and > 4 µg/mL in experiment [2] (setting [4]).

As to `CN(C)[C@@H]1C(O)=C(C(N)=O)C(=O)[C@@]2(O)C(O)=C3C(=O)c4c(ccc(NC(=O)N5CCOCC5)c4O)C[C@H]3C[C@@H]12` [IL], the MIC in experiment [1] (setting [3]) and in experiment [2] (setting [4]) was > 4 µg/mL throughout.

On to `C[C@H]1c2cccc(O)c2C(=O)C2=C(O)[C@]3(O)C(=O)C(C(N)=O)=C(O)[C@@H](N(C)C)[C@@H]3[C@@H](O)[C@@H]21` [drawing 3660], for which the MIC in experiment [1] (setting [5]) was < 4 µg/mL; in experiment [2] (setting [6]), > 4 µg/mL.

Take `CN(C)c1cc(C#CCNS(C)(=O)=O)c(O)c2c1C[C@H]1C[C@H]3[C@H](N(C)C)C(O)=C(C(N)=O)C(=O)[C@@]3(O)C(O)=C1C2=O`: the MIC in experiment [1] (setting [5]) and in experiment [2] (setting [6]) was > 4 µg/mL throughout.
